From patent publication US4232040A, “Compositions for and a method of preventing diabetic complications” (Syntex (U.S.A.) Inc., priority 1978, dated 1980)

Columns and labels:
Aldose reductase = molecular target: T1, Aldose reductase (Oryctolagus cuniculus, UniProt P15122); assay: Aldose reductase inhibition in vitro (rabbit lens enzyme, glyceraldehyde substrate, loss of absorbance at 340 millimicrons); type: biochemical, New Zealand rabbit; settings: 2 min, Table I, relative to non-inhibited control (0%); for inhibition at 100 µM: molar concentration of xanthone compound 1 × 10^-4; for inhibition at 10 µM: molar concentration of xanthone compound 1 × 10^-5; for inhibition at 1 µM: molar concentration of xanthone compound 1 × 10^-6
T1 construct: Aldose reductase is isolated by homogenizing the lens in 3 volumes of water; from tissue; host or cells: lens of mature New Zealand rabbits
Procedure: In brief, a solution of the enzyme is added to an appropriately buffered solution containing glyceraldehyde. The loss of ultra violet absorbance at 340 millimicrons is indicative of the rate of reaction of the aldehyde with the enzyme as previously reported by Hayman and Kinoshita, (J. Biol. Chem: 240, 877, (1965)).
Fifty lenses are obtained from mature, New Zealand, rabbits and are immediately frozen on dry ice. Aldose reductase is isolated by homogenizing the lens in 3 volumes of water for 30 seconds in a Waring blender followed by centrifugation at 10,000 xg for 15 minutes to remove insoluble material. Saturated ammonium sulfate is added to the supernatant fluid to 40% saturation. The suspension is centrifuged after 15 minutes, and the supernatant liquid recovered. Additional protein is removed by increasing the ammonium sulfate concentration to 50%, and centrifuging the mixture. Aldose reductase is precipitated from the 50% saturated solution by the addition of powdered ammonium sulfate to 75% saturation and is recovered by centrifugation. The precipitated enzyme is assayed by following the ultraviolet absorbance at 340 millimicrons after dissolving the enzyme in 0.05 M sodium chloride. The enzyme (0.50 ml) is added to a quartz cuvette containing phosphate buffer (0.067 M, pH 6.0), NADPH (2×10^-5 M), and water to a final volume of 3 ml and the cuvette inserted in a conventional ultra-violet spectrometer. The reaction is started by the addition of substrate (glyceraldehyde) to the contents of the cuvette and is followed by the determination of loss of absorbance at 340 millimicrons for 2 minutes at 37° C. The reaction rate observed is usually linear for at least 5 minutes.
All results are shown in Tables I, II, and III as % inhibition, i.e. based on a non-inhibited control sample, no inhibition, 0%.

lens aldose reductase = settings: in vitro studies; cited from earlier work

inhibition at 100 µM (Aldose reductase) | inhibition at 10 µM (Aldose reductase) | inhibition at 1 µM (Aldose reductase) | Structure (SMILES) | inhibition of lens aldose reductase (lens aldose reductase)
86% | 64% | 29% | CN(C)S(=O)(=O)c1ccc2oc3ccc(C(=O)N(CCO)CCO)cc3c(=O)c2c1 | –
95% | 75% | 25% | CC(C)CN(C)S(=O)(=O)c1ccc2oc3ccc(C(=O)O)cc3c(=O)c2c1 | –
– | – | 0% | O=C(O)c1ccc2oc3ccc(S(=O)(=O)O)cc3c(=O)c2c1 [H 3 H] | –
94% | 87% | 67% | CN(C)S(=O)(=O)c1ccc2oc3ccc(C(=O)O)cc3c(=O)c2c1 | –

Continued, molecule first:

Structure (SMILES) | inhibition at 100 µM (Aldose reductase) | inhibition at 10 µM (Aldose reductase) | inhibition at 1 µM (Aldose reductase) | inhibition of lens aldose reductase (lens aldose reductase)
O=c1c(O)c(-c2ccc(O)c(O)c2)oc2cc(O)cc(O)c12 [quercetin] | – | – | – | among the most potent
C[C@@H]1O[C@@H](Oc2c(-c3ccc(O)c(O)c3)oc3cc(O)cc(O)c3c2=O)[C@H](O)[C@H](O)[C@H]1O [quercetrin] | – | – | – | among the most potent
C[C@@H]1O[C@@H](Oc2c(-c3cc(O)c(O)c(O)c3)oc3cc(O)cc(O)c3c2=O)[C@H](O)[C@H](O)[C@H]1O [myrecetrin] | – | – | – | among the most potent
